Columns and labels:
[1] = biological target: T1, human mineralocorticoid receptor (MR) (Homo sapiens, UniProt P08235); test: Nuclear hormone receptor functional modulation assay (GRE-luciferase, HEK293), MR; assay type: cell-based
T1 construct: expressed in transfected cells; host or cells: HEK293, transient transfection (Fugene), CMV promoter plasmid
T1 sequence (P08235 1-984): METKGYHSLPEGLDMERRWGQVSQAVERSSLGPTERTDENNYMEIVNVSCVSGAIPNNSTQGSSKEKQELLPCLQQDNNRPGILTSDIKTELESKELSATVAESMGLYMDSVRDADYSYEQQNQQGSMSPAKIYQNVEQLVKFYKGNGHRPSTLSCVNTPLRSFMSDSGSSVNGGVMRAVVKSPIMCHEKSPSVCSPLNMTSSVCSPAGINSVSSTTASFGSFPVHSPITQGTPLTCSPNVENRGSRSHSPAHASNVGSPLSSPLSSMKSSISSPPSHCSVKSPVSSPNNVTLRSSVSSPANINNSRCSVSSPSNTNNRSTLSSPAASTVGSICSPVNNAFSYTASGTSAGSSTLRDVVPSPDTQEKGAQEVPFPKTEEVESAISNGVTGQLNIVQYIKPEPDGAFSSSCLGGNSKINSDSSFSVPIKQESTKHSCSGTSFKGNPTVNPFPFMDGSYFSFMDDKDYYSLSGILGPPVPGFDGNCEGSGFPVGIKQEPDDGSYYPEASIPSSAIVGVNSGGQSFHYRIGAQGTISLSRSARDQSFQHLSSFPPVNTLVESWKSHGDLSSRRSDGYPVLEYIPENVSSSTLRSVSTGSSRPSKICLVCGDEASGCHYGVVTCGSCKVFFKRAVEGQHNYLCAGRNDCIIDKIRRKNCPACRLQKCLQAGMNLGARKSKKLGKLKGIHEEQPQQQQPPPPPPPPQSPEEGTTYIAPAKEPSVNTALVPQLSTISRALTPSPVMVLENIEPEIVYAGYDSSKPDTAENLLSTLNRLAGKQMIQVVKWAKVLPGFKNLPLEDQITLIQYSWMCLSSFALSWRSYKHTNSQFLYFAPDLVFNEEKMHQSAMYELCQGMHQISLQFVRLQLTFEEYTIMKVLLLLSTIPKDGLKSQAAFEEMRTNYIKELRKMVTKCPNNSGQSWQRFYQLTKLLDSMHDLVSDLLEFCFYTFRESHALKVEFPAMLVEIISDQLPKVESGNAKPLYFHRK
Description: The solvents, reagents, and ligands employed in the functional assay are readily available from commercial sources, or can be prepared by one of ordinary skill in the art.
Human embryonic kidney HEK293 cells are transfected with steroid hormone receptor and reporter gene plasmids using Fugene™ (Roche Diganostics) transfection reagent. Briefly, the reporter plasmid containing two copies of probasin ARE (androgen response element 5′GGTTCTTGGAGTACT3′ (SEQ ID NO:1)) and TK(thymidine kinase) promoter upstream of the luciferase reporter cDNA, is transfected into HEK293 cells with a plasmid constitutively expressing human androgen receptor (AR) using viral CMV(cytomegalovirus) promoter. The reporter plasmid containing two copies of GRE (glucocorticoid response element 5′TGTACAGGATGTTCT′3 (SEQ ID NO:2)) and TK promoter upstream of the luciferase reporter cDNA is transfected with a plasmid constitutively expressing either human glucocorticoid receptor (GR), human mineralocorticoid receptor (MR), or human progesterone receptor (PR) using viral CMV promoter. Cells are transfected in T150 cm flasks in DMEM media with 5% charcoal-stripped Fetal Bovine Serum (FBS). […] In the antagonist mode for the assays, low concentrations of agonist for each respective receptor are added to the media (0.25 nM dexamethasone for GR, 0.3 nM of methyltrienolone for AR, 0.05 nM of promegestone for PR and 0.05 nM aldosterone for MR), and the ability of test compound to antagonize the agonist response is determined. After 24 hours of incubation with test compounds, cells are lysed and luciferase activity is determined using standard techniques.
Data are fitted to a four parameter-fit logistic curve fit to determine EC50 values. […] IC50 values may be determined similarly using antagonist mode assay data. Percent inhibitions may also be determined relative to the response in the presence of agonist alone, as described above.

[2] = tested on: LPS-stimulated TNF-α production in PMA-differentiated U937 cells; test: GR-mediated transrepression: LPS-stimulated TNF-α production in PMA-differentiated U937 cells; assay type: cell-based; conditions: Homo sapiens, U-937, mean of 6 determinations, read-out: EC50, inhibition of TNF-α expression
Description: 2. LPS-Stimulated TNF-α Production in PMA-Differentiated U937 Cells:
Human U937 pre-monocytic cells (ATCC Catalog #CRL-1593.2) are grown in complete RPMI 1640 medium (ATCC Catalog #30-2001) containing 10% fetal bovine serum (FBS). To allow monocytes to differentiate to adherent macrophages, U937 cells are washed in PBS (Calcium, magnesium-free) and resuspended in fresh RPMI medium containing 20 nM phorbol 12-myristate-13-acetate (PMA) overnight. After differentiation, test compounds are added to the cells in the 96-well plate at various concentrations ranging from about […] to 4.64 μM. 1-hour post treatment with test compound, LPS is added at final concentration of 100 ng/mL and the reaction mixture is incubated overnight.
TNF-α production is measured with an ELISA kit (R&D Systems, Inc., Minneapolis, Minn., U.S.A.) using standard techniques. Briefly, 25 μL cell-free supernatant is transferred to another 96-well plate and 75 μL of assay buffer is added. TNF-α is quantified by reading absorbance at 450 nm. A standard curve of absorbance versus TNF-α concentration is constructed and used to determine the concentration of TNF-α in experimental samples.

[3] = Metabolic profiling of plasma after in vivo administration, monkey
[4] = In vitro assays of genotoxic potential

CC/C(=C1\c2ccc(Cl)cc2OCc2ncccc21)c1cccc(NS(C)(=O)=O)c1 [Compound (I), (E)-N-{3-[1-(8-Chloro-11H-10-oxa-1-aza-dibenzo[a,d]cyclohepten-5-ylidene)-propyl]-phenyl}-methanesulfonamide]
EC50 ([1]; agonist mode, activating transcription): > 10000 nM | modulation of gene expression mediated by MR ([1]; functional modulation, in words): only limited activity | MR % Eff. ([1]; percent efficacy at 10 μM relative to 30 nM aldosterone, mean of 3): 8.5% | EC50 [2]: ~30 nM | metabolites in plasma [3]: no metabolites detected | circulating entity in plasma ([3]; after in vivo administration): major circulating entity | genotoxic potential [4]: non-genotoxic

Source: patent publication US8101760B2, “Glucocorticoid receptor modulator and methods of use” (Eli Lilly and Company, priority 2007, dated 2012)
